How the values were obtained:
splenocytes = experiment: Spleen cytokine assay (ex-vivo splenocyte assay); type: in vivo, mouse; conditions: mice administered MRx0029
Procedure: Animals were allowed to habituate to their holding room for one week after arrival into the animal unit. They receive oral gavage (200 μL dose) of live biotherapeutics at a dose of 1×10^9 CFU for 6 consecutive days between 15:00 and 17:00. On day 7, the animals are decapitated, and tissues are harvested for experimentation.
Spleens were collected immediately in 5 mL RPMI media following sacrifice and cultured immediately. Spleen cells were first homogenised in this RPMI media, followed by 5 mins incubation with 1 ml of RBC lysis buffer (11814389001 ROCHE, Sigma). A further 10 ml of RPMI media was added, followed by 200G centrifugation for 5 mins. The supernatant was then filtered through 40 um strainer. Cells were counted and seeded (4,000,000/mL media). After 2.5 h of adaptation, cells were stimulated with lipopolysaccharide (LPS-2 μg/ml) or concanavalin A (ConA-2.5 μg/ml) for 24 h. Following stimulation, the supernatants were harvested to assess the cytokine release using Proinflammatory Panel 1 (mouse) V-PLEX Kit (Meso Scale Discovery, Maryland, USA) for TNF-α, IL-10, IL-1β, Interferon γ, CXCL2 and IL6. The analyses were performed using MESO QuickPlex SQ 120, SECTOR Imager 2400, SECTOR Imager 6000, SECTOR S 600.
The ex-vivo splenocyte assay involves challenging the splenocytes (cells isolated from the spleen—a main organ involved in immune defence), with a bacterio- or viral-mimetic challenge.

TJP1 and Occludin = experiment: Ex vivo gene expression in the gut of mice fed with MRx0029; conditions: colon region of the murine intestine
Procedure: The in vitro results were compared with data from the ex vivo parallel analysis on the gut of mice fed with MRx0029. Gene expression of TJP1 and Occludin was quantified in the colon and ileum. […] Animals were allowed to habituate to their holding room for one week after arrival into the animal unit. They receive oral gavage (200 μL dose) of live biotherapeutics at a dose of 1×10^9 CFU for 6 consecutive days between 15:00 and 17:00. On day 7, the animals are decapitated, and tissues are harvested for experimentation. Animals were sacrificed in a random fashion regarding treatment and testing condition; sampling occurred between 9.00 a.m. and 2:30 p.m. Trunk blood was collected in potassium EDTA (Ethylene Diamine Tetra Acetic Acid) tubes and spun for 15 min at 4000 g. Plasma was isolated and stored at −80° C. for further analysis. The brain was quickly excised, dissected and each brain region was snap-frozen on dry ice and stored at −80° C. for further analysis. Spleen was removed, collected in 5 mL RPMI media (with L-glutamine and sodium bicarbonate, R8758 Sigma+10% FBS (F7524, Sigma)+1% Pen/Strep (P4333, Sigma)) and processed immediately after culls for ex-vivo immune stimulation. […]

NF-κB-Ap1 promoter = experiment: NF-κB promoter activation in HEK-TLR4 reporter cells (SEAP); type: cell-based, human; conditions: 10% supernatant 22 h, on its own (without LPS)
Procedure: HEK293-Blue reporter cells stably expressing human TLR4 (HEK-TLR4), were cultured according to the manufacturer's instructions. Briefly, HEK-TLR4 cells were maintained in DMEM 4.5 g/L D-glucose supplemented with 10% (v/v) heat-inactivated FBS, 4 mM L-Glutamine, 100 U/ml penicillin, 100 μg/ml streptomycin, 100 μg/ml normocin, 1×HEK-Blue selection media.
Briefly, cells were washed with PBS, dissociated in PBS and collected in growth media. Cells were plated in 96-well plates at a density of 25,000 cells/well. To evaluate the effect of bacteria strains on LPS inducing NF-κB promoter activation, cells were treated with 10 ng/ml LPS in presence or absence of 10% supernatants (isolated as described above) and incubated in a CO2 incubator. Treatments proceeded for 22 h at 37° C. and 5% CO2, after which the detection of Secreted Embryonic Alkaline Phosphatase (SEAP) activity from cell culture supernatant was performed using QUANTI-blue solution according to manufacturer's instructions. Briefly, 20 μl of cell-free supernatant was collected and analysed for the presence of SEAP by mixing with 200 μl of sterile-filtered QUANTI-Blue detection media. After 2 h incubation at 37° C., optical density was measured at 655 nm on a microplate reader (iMark microplate, Bio-Rad).

PBMCs = experiment: Cytokine analysis of PBMCs from healthy donors (multiplex immunoassay); type: cell-based, human; conditions: PBMC culture, 10% bacteria supernatant, 72 h
Procedure: Frozen healthy human PBMCs were purchased from Stem Cells Technologies (Cambridge UK). Briefly cells were thaw and left to rest overnight in full growth media (RPMI 1640 with 10% FBS, 2 mM L. Glutamine, 55 μM 2-Mercapoethanol and 100 U/ml penicillin, 100 μg/ml streptomycin) in CO2 incubator at 37° C. For the experiment cells were plated at a density of 750,000 Cell/well in 48 well plates and treated in full growth media with 10% bacteria supernatants in the presence or absence of 1 ng/ml LPS. Cell culture media was added to untreated wells. Cells were left to rest for 72 h, thereafter cell free supernatants were collected and spun down for 3 minutes at 10,000 g at 4° C. Samples were stored at −80° C. for cytokine analysis.
PBMCs were treated as described in Example 5.
Cytokine quantification was conducted using a ProcartaPlex multiplex immunoassay following the manufacturer's recommendations (Thermo Fischer Scientific). Briefly, 50 μl of cell-free co-culture supernatants were used for cytokine quantification using a MAGPIX® MILLIPLEX® system (Merck) with the xPONENT software (Luminex, Austin, Tex., USA). Data was analysed using the MILLIPLEX® analyst software (Merck) using a 5-parameter logistic curve and background subtraction to convert mean fluorescence intensity to pg/ml values.

Megasphaera massiliensis MRx0029 was tested. Which “interferon-γ production from splenocytes” value (splenocytes; following a challenge with LPS) did it give?
Its value is “reduction”.

And the “interleukin-1β production from splenocytes” value (splenocytes; following a challenge with LPS)?
The value was “reduction”.

What about the “interleukin-6 production from splenocytes” value (splenocytes; following a challenge with LPS) of the same substance?
Its value is “reduction”.

What about the “levels of the chemoattractant CXCL1 from splenocytes” value (splenocytes) of the same substance?
The value was “increase in the levels of the chemoattractant CXCL1”.

And the “TJP1 gene expression in the colon” value (TJP1 and Occludin)?
Its value is “significantly up-regulate”.

And the NF-κB-Ap1 promoter activation (NF-κB-Ap1 promoter)?
Its NF-κB-Ap1 promoter activation is “induced NF-κB-Ap1 promoter activation”.

And the “expression of IL-1β” value (PBMCs)?
The value was “increased the expression”.

What about the “expression of IL-6” value (PBMCs) of the same substance?
The value was “increased the expression”.

What about the “expression of IL-10” value (PBMCs) of the same substance?
The value was “increased the expression”.

And the “expression of IL-23” value (PBMCs)?
The value was “increased the expression”.

And the “expression of MIP-3α” value (PBMCs)?
The value was “increased the expression”.

What about the “expression of TNF-α” value (PBMCs) of the same substance?
Its value is “increased the expression”.
